Data as given in PubChem BioAssay AID324 (DTP/NCI, 2004).
Values joined by “and” are separate entries in the source; they are usually repeats but may differ in a detail not shown here. Equal values may be shown once. Inconclusive results and toxic doses are left out.

Test system: CD2F1 mice, AMSA-resistant P388 leukemia ip, median survival T/C
Test: NCI In Vivo Anticancer Drug Screen. Data for tumor model P388 Leukemia resistant to AMSA; NSC 249992 (intraperitoneal) in CD2F1 (CDF1) mice
Conditions: endpoint: median survival time, higher = longer survival
Protocol: The antitumor activity of compounds was measured in mice bearing transplantable tumors. Survival or tumor size were measured and the results are expressed as the measurement made in the treated group (T) divided by the measurement made in the vehicle treated control group (C). The tumor model used in this assay is P388 Leukemia resistant to AMSA; NSC 249992 (intraperitoneal) in CD2F1 (CDF1) mice

[1] = dose: 2.59 mg/kg/injection, schedule: Q04DX003 (ip), vehicle: other
[2] = dose: 4.32 mg/kg/injection, schedule: Q04DX003 (ip), vehicle: other
[3] = dose: 4.32 mg/kg/injection, schedule: Q04DX003 (ip), vehicle: water
[4] = dose: 7.2 mg/kg/injection, schedule: Q04DX003 (ip), vehicle: other
[5] = dose: 7.2 mg/kg/injection, schedule: Q04DX003 (ip), vehicle: water

For `COc1cc(NS(C)(=O)=O)ccc1Nc1c2ccccc2nc2ccccc12`, the T/C (dose: 1.56 mg/kg/injection, schedule: Q04DX003 (ip), vehicle: other) was 93 % of control, the T/C (dose: 2.33 mg/kg/injection, schedule: Q01DX001 (ip), vehicle: other) was 111 % of control and the T/C (dose: 2.59 mg/kg/injection, schedule: Q01DX001 (ip), vehicle: other) was 105 % of control. For the same compound, the T/C (dose: 2.59 mg/kg/injection, schedule: Q04DX001 (ip), vehicle: other) was 105 % of control, the T/C (dose: 2.59 mg/kg/injection, schedule: Q04DX002 (ip), vehicle: other) was 111 % of control and 116 % of control and the T/C (dose: 2.59 mg/kg/injection, schedule: Q04DX003 (ip), vehicle: clinical formulation) was 106 % of control. The T/C [1] was 98 % of control and 100 % of control and 106 % of control, the T/C (dose: 2.59 mg/kg/injection, schedule: Q04DX003 (ip), vehicle: water) was 98 % of control and 100 % of control and 104 % of control and the T/C (dose: 3.89 mg/kg/injection, schedule: Q01DX001 (ip), vehicle: other) was 109 % of control. For the same compound, the T/C (dose: 4.32 mg/kg/injection, schedule: Q01DX001 (ip), vehicle: other) was 105 % of control, the T/C (dose: 4.32 mg/kg/injection, schedule: Q04DX001 (ip), vehicle: other) was 105 % of control and the T/C (dose: 4.32 mg/kg/injection, schedule: Q04DX002 (ip), vehicle: other) was 117 % of control and 120 % of control. The T/C (dose: 4.32 mg/kg/injection, schedule: Q04DX003 (ip), vehicle: clinical formulation) was 123 % of control, the T/C [2] was 91 % of control and 101 % of control and 108 % of control and the T/C [3] was 100 % of control and 101 % of control and 105 % of control. The T/C (dose: 6.48 mg/kg/injection, schedule: Q01DX001 (ip), vehicle: other) was 104 % of control, the T/C (dose: 7.2 mg/kg/injection, schedule: Q01DX001 (ip), vehicle: other) was 101 % of control and the T/C (dose: 7.2 mg/kg/injection, schedule: Q04DX001 (ip), vehicle: other) was 101 % of control. For the same compound, the T/C (dose: 7.2 mg/kg/injection, schedule: Q04DX002 (ip), vehicle: other) was 101 % of control and 114 % of control, the T/C (dose: 7.2 mg/kg/injection, schedule: Q04DX003 (ip), vehicle: clinical formulation) was 124 % of control and the T/C [4] was 97 % of control and 110 % of control and 89 % of control. The T/C [5] was 102 % of control and 107 % of control and 113 % of control, the T/C (dose: 10.0 mg/kg/injection, schedule: Q04DX003 (ip), vehicle: saline with Tween-80) was 120 % of control and the T/C (dose: 10.8 mg/kg/injection, schedule: Q01DX001 (ip), vehicle: other) was 100 % of control. The T/C (dose: 12.0 mg/kg/injection, schedule: Q01DX001 (ip), vehicle: other) was 99 % of control, the T/C (dose: 12.0 mg/kg/injection, schedule: Q04DX001 (ip), vehicle: other) was 99 % of control and the T/C (dose: 12.0 mg/kg/injection, schedule: Q04DX002 (ip), vehicle: other) was 119 % of control and 120 % of control. For the same compound, the T/C (dose: 12.0 mg/kg/injection, schedule: Q04DX003 (ip), vehicle: other) was 90 % of control and 103 % of control (2×), the T/C (dose: 12.0 mg/kg/injection, schedule: Q04DX003 (ip), vehicle: water) was 102 % of control and the T/C (dose: 18.0 mg/kg/injection, schedule: Q01DX001 (ip), vehicle: other) was 110 % of control. For the same compound, the T/C (dose: 20.0 mg/kg/injection, schedule: Q01DX001 (ip), vehicle: other) was 90 % of control, the T/C (dose: 20.0 mg/kg/injection, schedule: Q04DX001 (ip), vehicle: other) was 90 % of control and the T/C (dose: 20.0 mg/kg/injection, schedule: Q04DX002 (ip), vehicle: other) was 92 % of control and 111 % of control. For the same compound, the T/C (dose: 20.0 mg/kg/injection, schedule: Q04DX003 (ip), vehicle: other) was 106 % of control and the T/C (dose: 30.0 mg/kg/injection, schedule: Q01DX001 (ip), vehicle: other) was 105 % of control.
In the case of `CO[C@H](C(=O)[C@@H](O)[C@@H](C)O)[C@@H]1Cc2cc3cc(OC4CC(OC5CC(O)C(O)C(C)O5)C(O)C(C)O4)c(C)c(O)c3c(O)c2C(=O)[C@H]1OC1CC(OC2CC(OC3CC(C)(O)C(O)C(C)O3)C(O)C(C)O2)C(O)C(C)O1` (stereo partly drawn), the T/C (dose: 0.13 mg/kg/injection, schedule: Q01DX005 (ip), vehicle: saline) was 112 % of control, the T/C (dose: 0.22 mg/kg/injection, schedule: Q01DX005 (ip), vehicle: saline) was 113 % of control and the T/C (dose: 0.36 mg/kg/injection, schedule: Q01DX005 (ip), vehicle: saline) was 118 % of control.
`COc1cc2c[n+](C)c3c4cc5c(cc4ccc3c2cc1OC)OCO5` was tested, and the T/C (dose: 25.92 mg/kg/injection, schedule: Q04DX003 (ip), vehicle: distilled water + Tween-80) was 118 % of control, the T/C (dose: 43.2 mg/kg/injection, schedule: Q04DX003 (ip), vehicle: distilled water + Tween-80) was 123 % of control and the T/C (dose: 120.0 mg/kg/injection, schedule: Q04DX003 (ip), vehicle: distilled water + Tween-80) was 115 % of control.
For `CC[C@](O)(C(=O)O)c1cc2n(c(=O)c1CO)Cc1cc3ccccc3nc1-2`, the T/C (dose: 18.0 mg/kg/injection, schedule: Q04DX003 (ip), vehicle: saline) was 192 % of control, the T/C (dose: 30.0 mg/kg/injection, schedule: Q04DX003 (ip), vehicle: saline) was 193 % of control and the T/C (dose: 50.0 mg/kg/injection, schedule: Q04DX003 (ip), vehicle: saline) was 240 % of control.
With `O=C(Nc1ccc(C2=NCCCN2)cc1)c1ccc(C(=O)Nc2ccc(C3=NCCCN3)cc2)cc1` the T/C (dose: 10.8 mg/kg/injection, schedule: Q04DX003 (ip), vehicle: Klucel (hydroxypropylcellulose) (HPC)) was 167 % of control, the T/C (dose: 18.0 mg/kg/injection, schedule: Q04DX003 (ip), vehicle: Klucel (hydroxypropylcellulose) (HPC)) was 185 % of control and the T/C (dose: 30.0 mg/kg/injection, schedule: Q04DX003 (ip), vehicle: Klucel (hydroxypropylcellulose) (HPC)) was 278 % of control. For the same compound, the T/C (dose: 50.0 mg/kg/injection, schedule: Q04DX003 (ip), vehicle: Klucel (hydroxypropylcellulose) (HPC)) was 95 % of control.
For `Cc1c2ccncc2c(C)c2c1[nH]c1ccccc12`, the T/C (dose: 7.78 mg/kg/injection, schedule: Q04DX003 (ip), vehicle: saline with Tween-80) was 100 % of control, the T/C (dose: 13.0 mg/kg/injection, schedule: Q04DX003 (ip), vehicle: saline with Tween-80) was 87 % of control and the T/C (dose: 13.0 mg/kg/injection, schedule: Q04DX003 (ip), vehicle: water) was 96 % of control. For the same compound, the T/C (dose: 21.6 mg/kg/injection, schedule: Q04DX003 (ip), vehicle: saline with Tween-80) was 100 % of control, the T/C (dose: 21.6 mg/kg/injection, schedule: Q04DX003 (ip), vehicle: water) was 100 % of control and the T/C (dose: 25.9 mg/kg/injection, schedule: Q04DX002 (ip), vehicle: saline with Tween-80) was 100 % of control. The T/C (dose: 36.0 mg/kg/injection, schedule: Q04DX003 (ip), vehicle: saline with Tween-80) was 101 % of control, the T/C (dose: 36.0 mg/kg/injection, schedule: Q04DX003 (ip), vehicle: water) was 101 % of control and the T/C (dose: 43.2 mg/kg/injection, schedule: Q04DX002 (ip), vehicle: saline with Tween-80) was 98 % of control. The T/C (dose: 60.0 mg/kg/injection, schedule: Q04DX003 (ip), vehicle: saline with Tween-80) was 109 % of control, the T/C (dose: 60.0 mg/kg/injection, schedule: Q04DX003 (ip), vehicle: water) was 89 % of control and the T/C (dose: 72.0 mg/kg/injection, schedule: Q04DX002 (ip), vehicle: saline with Tween-80) was 95 % of control. For the same compound, the T/C (dose: 120.0 mg/kg/injection, schedule: Q04DX002 (ip), vehicle: saline with Tween-80) was 95 % of control and the T/C (dose: 200.0 mg/kg/injection, schedule: Q04DX002 (ip), vehicle: saline with Tween-80) was 95 % of control.
For `CO[C@H]1Nc2c(ccc(C)c2O)C(=O)N2C=C(/C=C/C(N)=O)C[C@@H]12`, the T/C (dose: 0.08 mg/kg/injection, schedule: Q04DX003 (ip), vehicle: saline + alcohol) was 104 % of control and the T/C (dose: 0.13 mg/kg/injection, schedule: Q04DX003 (ip), vehicle: saline + alcohol) was 123 % of control.
In the case of `c1ccc2c(NCCCCCCNc3c4ccccc4nc4ccccc34)c3ccccc3nc2c1`, the T/C (dose: 1.94 mg/kg/injection, schedule: Q01DX009 (ip), vehicle: other) was 123 % of control, the T/C [1] was 123 % of control and the T/C [2] was 110 % of control. The T/C [4] was 94 % of control, the T/C (dose: 7.78 mg/kg/injection, schedule: Q01DX001 (ip), vehicle: water) was 93 % of control and the T/C (dose: 10.0 mg/kg/injection, schedule: Q01DX009 (ip), vehicle: Klucel (hydroxypropylcellulose) (HPC)) was 150 % of control. For the same compound, the T/C (dose: 13.0 mg/kg/injection, schedule: Q01DX001 (ip), vehicle: water) was 98 % of control.
In the case of `CC[C@@]1(O)C[C@H](OC2CC(N(C)C)C(OC3CC(O)C(OC4CCC(=O)C(C)O4)C(C)O3)C(C)O2)c2c(cc3c(c2O)C(=O)c2c(O)ccc(O)c2C3=O)[C@H]1C(=O)OC` (stereo partly drawn), the T/C [3] was 153 % of control and 158 % of control and the T/C [5] was 123 % of control and 219 % of control.
